Test results: patent US20130261177A1, “COMPOUNDS CAPABLE OF MODULATING/PRESERVING ENDOTHELIAL INTEGRITY FOR USE IN PREVENTION OR TREATMENT OF ACUTE TRAUMATIC COAGULOPATHY AND RESUSCITATED CARDIAC ARREST” (priority 2010, published 2013)

Experiments:
[1] = type: in vivo
Protocol: Ninety-four critically ill patients admitted to the intensive care unit (ICU) underwent haemofiltration with or without concomitant Flolan (prostacycline) treatment. None of the patients were suffering from Acute Traumatic Coagulopathy nor from sequelae to cardiac arrest. Flolan was administered in a low dose in the filters to prevent these from clotting and consequently there was only a minor spill over of Flolan to the systemic circulation. The patients were retrospectively reviewed.
However, patients in the flolan group were more severely ill as evaluated by a lower platelet count at start of hemofiltration, a higher frequency of severe thrombocytopenia, a higher frequency of DIC diagnoses, a higher maximum SOFA score and a higher SOFA score at hemofiltration initiation as compared to the patients receiving non-flolan.

[2] = Blood pressure and heart rate during intravenous flolan infusion in healthy volunteers; type: in vivo, human; conditions: 4 ng/kg/min intravenously for 2 h, any time point
Protocol: (§1) Six healthy volunteers were administered flolan (Prostacycline) intravenously at a dose of 4 ng/kg/min for 2 h. Blood samples for whole blood viscoelastical assay (Thrombelastography [TEG]) and whole blood platelet aggregation (Multiplate) were obtained before infusion of Flolan, after 60 min infusion of Flolan and after 120 min infusion of Flolan.

[3] = system: whole blood haemostatic competence; assay: Whole blood viscoelastical assay (Thrombelastography, TEG), kaolin activated, in healthy volunteers infused with flolan; type: in vivo, human; conditions: 6 healthy volunteers, 4 ng/kg/min intravenously, after 60 and 120 min infusion
Protocol: Six healthy volunteers were administered flolan (Prostacycline) intravenously at a dose of 4 ng/kg/min for 2 h. Blood samples for whole blood viscoelastical assay (Thrombelastography [TEG]) and whole blood platelet aggregation (Multiplate) were obtained before infusion of Flolan, after 60 min infusion of Flolan and after 120 min infusion of Flolan. With regard to the TEG assay this was performed as recommended by the manufacturer and 340 μl are mixed with 20 μl CaCl 0.2 M (final concentration 11.1 mM in the cup) and kaolin at 37° C. after which the haemostatic activity is recorded as depicted in FIG. 1.

[4] = system: whole blood platelet aggregation; assay: Whole blood impedance aggregometry (Multiplate) in healthy volunteers infused with flolan; type: in vivo, human; conditions: 6 healthy volunteers, 4 ng/kg/min intravenously, after 60 and 120 min infusion
Protocol: as §1
Whole blood impedance aggregometry was analyzed by the Multiple Platelet function Analyzer (MultiPlate® analyzer). Analysis employing various platelet agonists: ASPItest (activation by arachidonic acid), COLtest (activation by collagen through the collagen receptor), TRAPtest (activation by TRAP-6 stimulates the thrombin receptor on the platelet surface and ADPtest (activation by ADP stimulates platelet activation by the ADP receptors).
MultiPlate continuously records platelet aggregation. The increase of impedance by the attachment of platelets onto the Multiplate sensors is transformed to arbitrary aggregation units (AU) and plotted against time as depicted in FIG. 2.

[5] = system: thrombomodulin; assay: Plasma biomarker ELISA after Flolan infusion in healthy volunteers: thrombomodulin; type: in vivo, human; conditions: 4 ng/kg/min intravenously for 2 h, prolonged for several hours after ceasing the infusion
Protocol: (§2) Eight healthy volunteers were administered Flolan® (Prostacyclin) intravenously at a dose of 4 ng/kg/min for 2 h. Blood samples were analyzed for plasma biomarkers indicative of endothelial cell (thrombomodulin, PAI-1) and glycocalyx (syndecan-1) activation and/or damage, cellular necrosis (histone-complexed DNA fragments, HMGB1) and anticoagulation (protein C, antithrombin, TFPI) at the following time points: Before the infusion (Oh), immediately after ceasing the infusion (2 h) and then 4 h, 5 h, 6 h, 8 h and 24 h after starting the infusion. The concentration of the individual biomarkers in plasma was analyzed by commercially available ELISA kits according to the manufactures recommendations. Paired t-tests with p-values <0.05 were considered significant.

[6] = system: Protein C; assay: Plasma biomarker ELISA after Flolan infusion in healthy volunteers: Protein C; type: in vivo, human; conditions: 4 ng/kg/min intravenously for 2 h, in the hours after ceasing the infusion
Protocol: as §2

[7] = system: PAI-1; assay: Plasma biomarker ELISA after Flolan infusion in healthy volunteers: PAI-1; type: in vivo, human; conditions: 4 ng/kg/min intravenously for 2 h
Protocol: as §2

[8] = system: antithrombin; assay: Plasma biomarker ELISA after Flolan infusion in healthy volunteers: antithrombin; type: in vivo, human; conditions: 4 ng/kg/min intravenously for 2 h
Protocol: as §2

SMILES: CCCCC[C@H](O)/C=C/[C@@H]1[C@H]2C/C(=C/CCCC(=O)O)O[C@H]2C[C@H]1O [Flolan, epoprostenol sodium]
- mortality at 30 days ([1]; ICU patients, low dose Flolan in the haemofiltration filters, vs. 39% non-flolan, p=0.12): 21%
- 90 day mortality ([1]; ICU patients, low dose Flolan in the haemofiltration filters, vs. 53% non-flolan, p=0.10): 34%
- mortality at 365 days ([1]; ICU patients, low dose Flolan in the haemofiltration filters, vs. 57% non-flolan, p=0.09): 38%
- Platelet count (difference before vs. after haemofiltration) ([1]; human, in vivo): +14
- haemostatic competence as evaluated by transfusion requirements ([1]; human, in vivo): does not negatively influence
- total transfusion requirements and specifically of FFP during hemofiltration ([1]; human, in vivo): increased total transfusion requirements
- blood pressure, change from baseline [2]: did not change
- heart rate, change from baseline [2]: did not change
- TEG values (R, Angle, MA), baseline vs. during infusion [3]: No significant difference
- Multiplate values (agonists ASPI, COL, ADP, TRAP), baseline vs. during infusion [4]: no significant difference
- circulating level of thrombomodulin [5]: marked decrease
- circulating level of Protein C [6]: decreased
- circulating level of PAI-1 [7]: declined
- circulating level of antithrombin [8]: decreased
